Results on twelve compounds are retold here after patent publication US9708334B2, “Substituted 2,4,5,6-tetrahydropyrrolo[3,4-c]pyrazole and 4,5,6,7-tetrahydro-2H-pyrazolo[4,3-c]pyridine compounds as GlyT1 inhibitors” (DART NEUROSCIENCE (CAYMAN) LTD., priority 2014, dated 2017).

Some results are limits rather than exact numbers.

The test deals with T1, GlyT1 (Homo sapiens, UniProt P48067).
T1 construct: expressed in transfected cells
T1 sequence (P48067 1-706): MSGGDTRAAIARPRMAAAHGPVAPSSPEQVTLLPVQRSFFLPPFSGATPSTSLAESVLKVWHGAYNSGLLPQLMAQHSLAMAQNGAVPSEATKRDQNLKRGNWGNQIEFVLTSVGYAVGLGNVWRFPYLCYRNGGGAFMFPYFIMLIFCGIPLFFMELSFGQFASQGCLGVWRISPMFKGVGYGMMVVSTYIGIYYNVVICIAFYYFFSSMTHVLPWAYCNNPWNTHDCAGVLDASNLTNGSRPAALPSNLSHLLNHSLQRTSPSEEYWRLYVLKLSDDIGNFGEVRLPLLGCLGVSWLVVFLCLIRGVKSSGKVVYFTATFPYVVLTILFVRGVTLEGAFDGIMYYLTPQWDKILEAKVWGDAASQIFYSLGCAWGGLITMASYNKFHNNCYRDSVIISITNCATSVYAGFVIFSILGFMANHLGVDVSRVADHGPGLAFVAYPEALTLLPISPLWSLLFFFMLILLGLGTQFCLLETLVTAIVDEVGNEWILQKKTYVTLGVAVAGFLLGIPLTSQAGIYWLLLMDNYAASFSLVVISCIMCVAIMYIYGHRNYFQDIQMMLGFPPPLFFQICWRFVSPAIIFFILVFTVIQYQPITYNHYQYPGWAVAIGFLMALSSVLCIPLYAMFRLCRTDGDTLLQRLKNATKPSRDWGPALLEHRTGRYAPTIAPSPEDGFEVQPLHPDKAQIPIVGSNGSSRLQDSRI
In words: Glycine Transporter 1 (GlyT1) uptake assay, scintillation proximity assay of [14C]-glycine uptake. The class given is cell-based. Particulars: SPA, four parameter logistic fit, read-out: GlyT1 (pIC50) (converted). The method, boiled down:
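IC50 values derive from four-parameter logistic curves fitted to dose-response data. Uptake of [14C]-glycine measured in scintillation proximity format.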
On to `CC(C)Oc1ccc(C#N)cc1C(=O)N1Cc2cn(-c3ccc(C#N)nc3)nc2C1` [Example 466], for which the IC50 is 100 to 1000 nM.

On to `C[C@H](Oc1ccc(C#N)cc1C(=O)N1Cc2cn(-c3ccnc(C#N)c3)nc2C1)C(F)(F)F` [Example 467, 4-[5-(5-Cyano-2-{[(2S)-1 1 1-trifluoropropan-2-yl]oxy}benzoyl)-2H 4H 5H 6H-pyrrolo[3,4-c]pyrazol-2-yl]pyridine-2-carbonitrile], for which the IC50 is 100 to 1000 nM.

In the case of `CC(C)Oc1ccc(C#N)cc1C(=O)N1Cc2cn(-c3ccnc(C#N)c3)nc2C1` [Example 468, 4-{5-[5-Cyano-2-(propan-2-yloxy)benzoyl]-2H 4H 5H 6H-pyrrolo[3,4-c]pyrazol-2-yl}pyridine-2-carbonitrile], the IC50 is 100 to 1000 nM.

On to `CS(=O)(=O)c1ccc(-c2cccc(F)c2)c(C(=O)N2Cc3cn(C4CCC(F)(F)CC4)nc3C2)c1` [Example 469, 2-(4 4-Difluorocyclohexyl)-5-[2-(3-fluorophenyl)-5-methanesulfonylbenzoyl]-2H 4H 5H 6H-pyrrolo[3,4-c]pyrazole], for which the IC50 was below 100 nM.

Take `CC(C)Oc1ccc(S(C)(=O)=O)cc1C(=O)N1Cc2cn(C3CCC(F)(F)CC3)nc2C1` [Example 470, 2-(4 4-Difluorocyclohexyl)-5-[5-methanesulfonyl-2-(propan-2-yloxy)benzoyl]-2H 4H 5H 6H-pyrrolo[3,4-c]pyrazole]: the IC50 was below 100 nM.

In the case of `C[C@H](Oc1ccc(S(C)(=O)=O)cc1C(=O)N1Cc2cn(C3CCC(F)(F)CC3)nc2C1)C(F)(F)F` [Example 471, 2-(4 4-Difluorocyclohexyl)-5-(5-methanesulfonyl-2-{[(2S)-1 1 1-trifluoropropan-2-yl]oxy}benzoyl)-2H 4H 5H 6H-pyrrolo[3,4-c]pyrazole], the IC50 was below 100 nM.

As to `C[C@H](Oc1ccc(C#N)cc1C(=O)N1Cc2cn(C3CCC(F)(F)CC3)nc2C1)C(F)(F)F` [Example 472, 3-[2-(4 4-Difluorocyclohexyl)-2H 4H 5H 6H-pyrrolo[3,4-c]pyrazole-5-carbonyl]-4-{[(2S)-1 1 1-trifluoropropan-2-yl]oxy}benzonitrile], the IC50 was 100 to 1000 nM.

As to `COc1c(C#N)ccc(OC(C)C(F)(F)F)c1C(=O)N1CCc2nn(-c3ccc(F)cc3)c(C)c2C1` (stereo not drawn) [Example 473, 3-[2-(4-Fluorophenyl)-3-methyl-2H 4H 5H 6H 7H-pyrazolo[4,3-c]pyridine-5-carbonyl]-2-methoxy-4-[(1 1 1-trifluoropropan-2-yl)oxy]benzonitrile], the IC50 is above 10000 nM.

As to `COc1c(C#N)ccc(OC(C)C(F)(F)F)c1C(=O)N1Cc2cnn(-c3ccc(F)cc3)c2C(C)(C)C1` (stereo not drawn) [Example 474, 3-[1-(4-Fluorophenyl)-7 7-dimethyl-1H 4H 5H 6H 7H-pyrazolo[4,3-c]pyridine-5-carbonyl]-2-methoxy-4-[(1 1 1-trifluoropropan-2-yl)oxy]benzonitrile], the IC50 is 1000 to 10000 nM.

Take `COc1c(C#N)ccc(OCC2(C)CC2)c1C(=O)N1CCc2nn(-c3ccc(F)cc3)cc2C1` [Example 475, 3-[2-(4-Fluorophenyl)-2H 4H 5H 6H 7H-pyrazolo[4,3-c]pyridine-5-carbonyl]-2-methoxy-4-[(1-methylcyclopropyl)methoxy]benzonitrile]: the IC50 was above 10000 nM.

With `COc1c(C#N)ccc(OCC2(C(F)(F)F)CC2)c1C(=O)N1CCc2nn(-c3ccc(F)cc3)cc2C1` [Example 476, 3-[2-(4-Fluorophenyl)-2H 4H 5H 6H 7H-pyrazolo[4,3-c]pyridine-5-carbonyl]-2-methoxy-4-{[1-(trifluoromethyl)cyclopropyl]methoxy}benzonitrile], the IC50 is 1000 to 10000 nM.

Consider `CC(C)(Oc1ccc(S(C)(=O)=O)cc1C(=O)N1Cc2cn(-c3ccc(F)cc3)nc2C1)C(F)(F)F` [Example 477, 2-(4-Fluorophenyl)-5-{5-methanesulfonyl-2-[(1 1 1-trifluoro-2-methylpropan-2-yl)oxy]benzoyl}-2H 4H 5H 6H-pyrrolo[3,4-c]pyrazole], for which the IC50 was above 10000 nM.
